Reference: patent US20050261177A1, “Compound” (priority 2001, published 2005)
Where two headings read alike, the source gives them in different places. Numbered stars: 1 amine (or outer) side, 2 acyl side, 3 side chain; on linkers, the order of the positions; unused ones are H or OH. Bridge positions count the residues as written; N and C are the ends. Square brackets hold non-standard residues; d marks the D form. Peptide text beside a SMILES is read from it. * marks the point of attachment. hTyr(3R-OH,3'-OSO3H) = N[C@H](C(=O)O)[C@H](O)Cc1ccc(O)c(OS(=O)(=O)O)c1; X3 = O=C(c1ccc(-c2cn3nc(-c4ccc(OC5CCN(c6ccccc6)CC5)cc4)sc3n2)cc1)*; X2 = COCCCCCCN1CCN(c2ccc(-c3nn4cc(-c5ccc(C(=O)*)cc5)nc4s3)cc2)CC1; X4 = C[C@H]1CC[C@H](N2CCN(c3ccc(-c4ccc(C(=O)*)cc4)cc3)CC2)CC1; Orn(3R-OH,Nδ-CH(CH2OH)2) = N[C@H](C(=O)O)[C@H](O)CCNC(CO)CO; X1 = CCCCCOC1CCN(c2ccc(-c3nnc(-c4ccc(C(=O)*)cc4)s3)cc2)CC1; Orn(4R-OH) = O=C([C@H](C[C@@H](O)CN[*:3])N[*:1])[*:2]; Pro(3S-OH,4S-Me) = C[C@H]1CN[C@H](C(=O)O)[C@H]1O; Hyp = O=C(O)[C@@H]1C[C@@H](O)CN1

System: Candida albicans FP-633
Format: cell-based
Procedure: In vitro antimicrobial activity of the object compound of Examples 41, 46, 53 and 56 disclosed later was determined by MICs in mouse serum as described below.
The MICS in mouse serum were determined by the microdilution method using ICR mouse serum buffered with 20 mM HEPES buffer (pH 7.3) as a test medium. Inoculum suspension of 10^6 cells/ml were prepared by a hemocytometric procedure and diluted to obtain an inoculum size of approximately 1.0×10^3 cells/ml. Microplates were incubated at 37° C. for 24 hours in 5% CO2. The MICS were defined as the lowest concentrations at which no visible growth was observed.

[1] = Candida albicans FP-633, ICR mouse serum buffered with 20 mM HEPES (pH 7.3), 37° C., 24 hours, 5% CO2, lowest concentration with no visible growth

Row | SMILES | MIC (FP-633, 24 h, pH 7.3) | MIC [1]
1 | CCCCCOC1CCN(c2ccc(-c3nnc(-c4ccc(C(=O)N[C@H]5C[C@@H](O)CNC(=O)[C@@H]6[C@@H](O)[C@@H](C)CN6C(=O)[C@H]([C@H](O)CCNC(CO)CO)NC(=O)[C@H]([C@H](O)Cc6ccc(O)c(OS(=O)(=O)O)c6)NC(=O)[C@@H]6C[C@@H](O)CN6C(=O)[C@H]([C@@H](C)O)NC5=O)cc4)s3)cc2)CC1 [Example 56] (X1-[Orn(4R-OH)]T[Hyp][hTyr(3R-OH,3'-OSO3H)][Orn(3R-OH,Nδ-CH(CH2OH)2)][Pro(3S-OH,4S-Me)]; lactam 1-C) | <0.3 µg/mL | 
2 | COCCCCCCN1CCN(c2ccc(-c3nn4cc(-c5ccc(C(=O)N[C@H]6C[C@@H](O)CNC(=O)[C@@H]7[C@@H](O)[C@@H](C)CN7C(=O)[C@H]([C@H](O)CCNC(CO)CO)NC(=O)[C@H]([C@H](O)Cc7ccc(O)c(OS(=O)(=O)O)c7)NC(=O)[C@@H]7C[C@@H](O)CN7C(=O)[C@H]([C@@H](C)O)NC6=O)cc5)nc4s3)cc2)CC1 [Example 46] (X2-[Orn(4R-OH)]T[Hyp][hTyr(3R-OH,3'-OSO3H)][Orn(3R-OH,Nδ-CH(CH2OH)2)][Pro(3S-OH,4S-Me)]; lactam 1-C) | <0.3 µg/mL | 
3 | C[C@@H](O)[C@@H]1NC(=O)[C@@H](NC(=O)c2ccc(-c3ccc(N4CCN([C@H]5CC[C@H](C)CC5)CC4)cc3)cc2)C[C@@H](O)CNC(=O)[C@@H]2[C@@H](O)[C@@H](C)CN2C(=O)[C@H]([C@H](O)CCNC(CO)CO)NC(=O)[C@H]([C@H](O)Cc2ccc(O)c(OS(=O)(=O)O)c2)NC(=O)[C@@H]2C[C@@H](O)CN2C1=O [Example 53] (X4-[Orn(4R-OH)]T[Hyp][hTyr(3R-OH,3'-OSO3H)][Orn(3R-OH,Nδ-CH(CH2OH)2)][Pro(3S-OH,4S-Me)]; lactam 1-C) |  | <0.3 µg/mL
4 | C[C@@H](O)[C@@H]1NC(=O)[C@@H](NC(=O)c2ccc(-c3cn4nc(-c5ccc(OC6CCN(c7ccccc7)CC6)cc5)sc4n3)cc2)C[C@@H](O)CNC(=O)[C@@H]2[C@@H](O)[C@@H](C)CN2C(=O)[C@H]([C@H](O)CCNC(CO)CO)NC(=O)[C@H]([C@H](O)Cc2ccc(O)c(OS(=O)(=O)O)c2)NC(=O)[C@@H]2C[C@@H](O)CN2C1=O [Example 41] (X3-[Orn(4R-OH)]T[Hyp][hTyr(3R-OH,3'-OSO3H)][Orn(3R-OH,Nδ-CH(CH2OH)2)][Pro(3S-OH,4S-Me)]; lactam 1-C) |  | <0.3 µg/mL
